One experiment deals with T1, μ(MOP) (h) receptor (Homo sapiens, UniProt P35372).
T1 construct: expressed in transfected cells; host or cells: CHO cells
As to the kind of experiment: Cellular functional assay, μ (MOP) (h) antagonist effect (cAMP, HTRF). The class given is cell-based. The method, then:
Cellular and Nuclear Receptor Functional Assays are performed on the compounds of Formula II-B and according to the procedure of Wang, J. B. et al. (1994), FEBS Lett., 338:217-222. The compounds are tested at several concentrations to determine their IC50 or EC50.
Cellular agonist effects are calculated as percent of control response to a known reference agonist for each target and cellular antagonist effect is calculated as a percent inhibition of control reference agonist response for each target.
The following assay is performed to determine the effect of the Compound of Formula on the μ(MOP) (h) receptor: […]
The results are expressed as a percent of control agonist response: […]
and as a percent inhibition of control agonist response:
The EC50 values (concentration producing a half-maximal response) and IC50 values (concentration causing a half-maximal inhibition of the control agonist response) are determined by non-linear regression analysis of the concentration-response curves generated with mean replicate values using Hill equation curve fitting:
[formula] where Y=response, A=left asymptote of the curve, D=right asymptote of the curve, C=compound concentration, and C50=EC50 or IC50, and nH=slope factor. The analysis is performed using software developed in-house and validated by comparison with data generated by the commercial software SigmaPlot® 4.0 for Windows® (© 1997 by SPSS Inc.).
For the antagonists, the apparent dissociation constants (KB) are calculated using the modified Cheng Prusoff equation:
[formula] where A=concentration of reference agonist in the assay, and EC50A=EC50 value of the reference agonist.
In general terms: In TR-FRET formats the signal depends on donor and acceptor labels being close together.

For the next experiment, the target named is SERT (Homo sapiens, UniProt P31645). The experiment is described as follows: Receptor binding SERT. To be noted: read-out: Ki (nM) or maximum inhibition. The procedure:
(§1) Receptor binding is determined for the Compounds of Formulas II-A and II-B using the tosylate salt of the compound of Formula A as a control. The following literature procedures are used, each of which reference is incorporated herein by reference in their entireties:
SERT: Park, Y. M. et al. (1999), Anal. Biochem., 269:94-104.
(§2) In general, the results are expressed as a percent of control specific binding:
(§3) [formula] and as a percent inhibition of control specific binding: […]
(§4) The IC50 values (concentration causing a half-maximal inhibition of control specific binding) and Hill coefficients (nH) are determined by non-linear regression analysis of the competition curves generated with mean replicate values using Hill equation curve fitting:
(§5) [formula] where Y=specific binding, A=left asymptote of the curve, D=right asymptote of the curve, C=compound concentration, C50=IC50, and nH=slope factor. This analysis was performed using in-house software and validated by comparison with data generated by the commercial software SigmaPlot® 4.0 for Windows® (© 1997 by SPSS Inc.). The inhibition constants (Ki) were calculated using the Cheng Prusoff equation:
(§6) [formula] where L=concentration of radioligand in the assay, and KD=affinity of the radioligand for the receptor. A Scatchard plot is used to determine the KD.

In another experiment the target is D1 (Homo sapiens, UniProt P21728). The experiment is described as follows: Receptor binding D1. Particulars: read-out: Ki (nM) or maximum inhibition. The method, then: as §1, §2, §3, §4, §5, §6
D1, sequence (P21728 whole entry): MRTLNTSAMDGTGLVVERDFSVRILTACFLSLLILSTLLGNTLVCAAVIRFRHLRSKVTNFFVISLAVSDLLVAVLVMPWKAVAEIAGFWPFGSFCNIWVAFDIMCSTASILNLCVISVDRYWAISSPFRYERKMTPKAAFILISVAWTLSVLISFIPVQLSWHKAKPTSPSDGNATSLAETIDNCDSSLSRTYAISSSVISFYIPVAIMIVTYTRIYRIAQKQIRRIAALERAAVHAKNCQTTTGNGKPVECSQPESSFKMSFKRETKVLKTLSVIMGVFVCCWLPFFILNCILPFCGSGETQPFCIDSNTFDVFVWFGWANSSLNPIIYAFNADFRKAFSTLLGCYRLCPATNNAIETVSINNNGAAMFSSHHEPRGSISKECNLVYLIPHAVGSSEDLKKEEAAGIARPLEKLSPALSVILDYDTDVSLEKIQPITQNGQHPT
The target of the next experiment is Mu opiate receptor (Homo sapiens, UniProt P35372). As to the kind of experiment: Receptor binding Mu opiate receptor. Particulars: read-out: Ki (nM) or maximum inhibition. The procedure:
as §1
Mu opiate receptor: Wang, J. B. et al. (1994), FEBS Lett., 338:217-222.
as §2, §3, §4, §5, §6

The target of the next experiment is 5-HT2A (Homo sapiens, UniProt P28223). As to the kind of experiment: Receptor binding 5-HT2A. Particulars: read-out: Ki (nM) or maximum inhibition. The procedure: as §1, §2, §3, §4, §5, §6
5-HT2A, sequence (P28223 whole entry): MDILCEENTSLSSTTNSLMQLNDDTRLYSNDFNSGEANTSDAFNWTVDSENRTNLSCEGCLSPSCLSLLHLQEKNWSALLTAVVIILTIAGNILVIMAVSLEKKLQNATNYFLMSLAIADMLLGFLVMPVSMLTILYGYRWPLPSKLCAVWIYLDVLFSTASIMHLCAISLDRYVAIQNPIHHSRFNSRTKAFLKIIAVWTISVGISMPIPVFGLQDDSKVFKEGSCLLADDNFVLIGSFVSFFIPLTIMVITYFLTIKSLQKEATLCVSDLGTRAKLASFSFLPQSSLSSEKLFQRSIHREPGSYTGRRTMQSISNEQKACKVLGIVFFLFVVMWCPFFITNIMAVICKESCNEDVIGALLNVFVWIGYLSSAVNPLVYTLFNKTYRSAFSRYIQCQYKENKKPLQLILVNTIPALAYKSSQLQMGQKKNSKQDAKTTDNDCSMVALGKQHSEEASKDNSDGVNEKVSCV

Molecules are shown by their SMILES.

T1 sequence (P35372 whole entry): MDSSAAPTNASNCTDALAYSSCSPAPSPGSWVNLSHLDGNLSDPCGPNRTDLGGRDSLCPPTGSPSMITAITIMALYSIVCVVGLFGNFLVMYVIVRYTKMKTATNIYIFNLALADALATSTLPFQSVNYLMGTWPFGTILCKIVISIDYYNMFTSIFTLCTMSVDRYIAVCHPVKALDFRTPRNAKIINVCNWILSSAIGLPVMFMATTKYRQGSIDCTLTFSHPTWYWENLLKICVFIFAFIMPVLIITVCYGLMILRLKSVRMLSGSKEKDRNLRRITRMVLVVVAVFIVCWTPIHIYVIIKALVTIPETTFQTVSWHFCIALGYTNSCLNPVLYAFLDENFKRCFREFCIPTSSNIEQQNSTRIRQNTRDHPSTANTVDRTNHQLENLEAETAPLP
SERT, sequence (P31645 whole entry, species assumed): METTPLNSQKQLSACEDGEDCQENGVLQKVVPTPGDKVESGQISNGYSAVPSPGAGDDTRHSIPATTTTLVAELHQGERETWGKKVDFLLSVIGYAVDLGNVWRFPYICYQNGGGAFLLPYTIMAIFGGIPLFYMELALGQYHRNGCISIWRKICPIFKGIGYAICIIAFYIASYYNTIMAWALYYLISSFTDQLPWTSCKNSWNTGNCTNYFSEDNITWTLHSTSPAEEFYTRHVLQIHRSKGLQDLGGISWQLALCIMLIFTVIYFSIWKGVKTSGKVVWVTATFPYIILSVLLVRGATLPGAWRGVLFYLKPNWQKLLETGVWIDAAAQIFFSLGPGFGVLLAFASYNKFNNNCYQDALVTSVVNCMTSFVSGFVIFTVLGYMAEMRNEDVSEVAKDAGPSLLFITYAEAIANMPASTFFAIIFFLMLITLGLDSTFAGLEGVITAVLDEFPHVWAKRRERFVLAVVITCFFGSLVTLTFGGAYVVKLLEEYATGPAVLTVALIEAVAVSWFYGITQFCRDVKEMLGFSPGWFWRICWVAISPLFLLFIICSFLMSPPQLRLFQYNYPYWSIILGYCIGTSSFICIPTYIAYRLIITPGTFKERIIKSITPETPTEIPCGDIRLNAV
Mu opiate receptor, sequence (P35372 whole entry): as the sequence (P35372 whole entry) above

For the compound `O=C1CN2c3c(cccc3[C@@H]3CN(CCCC(=O)c4ccncc4)CC[C@@H]32)N1` [Formula II-C], the IC50 – broadly, the concentration at which inhibition is half-maximal – at μ(MOP) (h) receptor (unit inferred, highest concentration tested) was > 10000 nM. Moreover, at SERT, the inhibition (commonly the drop in the measured response relative to a control, in per cent) at 1 µM amounted to 40%. Moreover, the figures for the Ki on D1, on Mu opiate receptor and at 5-HT2A were 470 nM, 400 nM and 37 nM, respectively.
For the compound `CN1C(=O)CN2c3c(cccc31)[C@@H]1CN(CCCC(=O)c3ccncc3)CC[C@@H]12` [Formula II-B], at μ(MOP) (h) receptor (human recombinant CHO cells, DAMGO (20 nM) stimulus, cAMP), the IC50 is 1300 nM. Moreover, the Kb (in general, the equilibrium dissociation constant of an antagonist, usually derived from a functional assay) at μ(MOP) (h) receptor (modified Cheng Prusoff equation, DAMGO (20 nM), read-out: μ(MOP) (h) (antagonist effect) KB (apparent dissociation constant)) was determined as 140 nM.

For the origin of these results see patent US10961245B2, “Substituted heterocycle fused gamma-carbolines for treatment of central nervous system disorders” (INTRA-CELLULAR THERAPIES, INC., priority 2016, dated 2021).
